Measured values taken from the OligoGym collection.
Oligonucleotides are written 5' to 3', each unit as a sugar letter and its base; * is a phosphorothioate linkage, no mark a phosphodiester; rarer units and linkages stand in square brackets, end groups in braces. Plain capitals give the bases only. d = 2'-deoxy (DNA); r = 2'-OH (RNA)
Note: test concentration or dose not given here.

Experiment: reporter assay of Huesken 2005
Settings: siRNA
For “sense rCrGrUrUrUrCrArUrUrGrUrUrCrCrUrGrUrGrAdTdT / antisense rUrCrArCrArGrGrArArCrArArUrGrArArArCrGdAdC”, the normalised inhibition (eCFP-eYFP dual reporter) was 54.2%. In the case of “sense rCrCrUrUrGrGrArArArCrGrArArCrCrArArGrCdTdT / antisense rGrCrUrUrGrGrUrUrCrGrUrUrUrCrCrArArGrGdGdA”, the normalised inhibition (eCFP-eYFP dual reporter) is reported as 85.8%. Substance “sense rCrArCrCrArGrArGrUrGrGrArArArCrUrCrArCdTdT / antisense rGrUrGrArGrUrUrUrCrCrArCrUrCrUrGrGrUrGdAdC” has a normalised inhibition (eCFP-eYFP dual reporter) of 92.8%. With “sense rArCrArCrCrArGrArGrCrCrUrGrCrCrCrCrArCdTdT / antisense rGrUrGrGrGrGrCrArGrGrCrUrCrUrGrGrUrGrUdGdA” the normalised inhibition (eCFP-eYFP dual reporter) was 72.8%. Work on “sense rUrGrUrGrArCrCrUrCrCrArUrCrUrArCrUrCrUdTdT / antisense rArGrArGrUrArGrArUrGrGrArGrGrUrCrArCrAdGdG” yielded a normalised inhibition (eCFP-eYFP dual reporter) of 96.8%. “sense rCrUrUrCrUrGrArGrCrArArUrArUrCrCrCrCrAdTdT / antisense rUrGrGrGrGrArUrArUrUrGrCrUrCrArGrArArGdTdT” gave a normalised inhibition (eCFP-eYFP dual reporter) of 93%. “sense rGrArGrUrCrArArArGrGrUrCrArCrCrArGrArGdTdT / antisense rCrUrCrUrGrGrUrGrArCrCrUrUrUrGrArCrUrCdCdC” gave a normalised inhibition (eCFP-eYFP dual reporter) of 85.9%. In the case of “sense rArGrCrGrGrGrArGrArGrArGrCrArArCrArGrGdTdT / antisense rCrCrUrGrUrUrGrCrUrCrUrCrUrCrCrCrGrCrUdGdC”, the normalised inhibition (eCFP-eYFP dual reporter) is reported as 43.5%. Work on “sense rCrArArUrCrCrGrCrCrCrCrArCrCrCrUrUrUrAdTdT / antisense rUrArArArGrGrGrUrGrGrGrGrCrGrGrArUrUrGdGdG” yielded a normalised inhibition (eCFP-eYFP dual reporter) of 80.2%. “sense rCrUrCrUrGrUrCrUrCrUrCrUrGrCrCrArCrArUdTdT / antisense rArUrGrUrGrGrCrArGrArGrArGrArCrArGrArGdCdC” gave a normalised inhibition (eCFP-eYFP dual reporter) of 62.3%. In the case of “sense rUrArCrUrCrUrUrGrCrUrCrUrCrUrGrGrArGrUdTdT / antisense rArCrUrCrCrArGrArGrArGrCrArArGrArGrUrAdGdA”, the normalised inhibition (eCFP-eYFP dual reporter) is reported as 57.9%. Work on “sense rCrCrArGrArGrUrGrGrArArArCrUrCrArCrArCdTdT / antisense rGrUrGrUrGrArGrUrUrUrCrCrArCrUrCrUrGrGdTdG” yielded a normalised inhibition (eCFP-eYFP dual reporter) of 95.3%. Substance “sense rArArUrGrArGrCrUrCrCrUrUrArCrUrUrArArCdTdT / antisense rGrUrUrArArGrUrArArGrGrArGrCrUrCrArUrUdCdC” has a normalised inhibition (eCFP-eYFP dual reporter) of 70.8%. Substance “sense rGrGrCrUrUrUrGrGrArGrCrCrCrUrUrCrUrGrCdTdT / antisense rGrCrArGrArArGrGrGrCrUrCrCrArArArGrCrCdTdA” has a normalised inhibition (eCFP-eYFP dual reporter) of 73.7%. Substance “sense rUrGrCrCrUrCrCrCrUrUrGrArGrGrCrGrUrCrUdTdT / antisense rArGrArCrGrCrCrUrCrArArGrGrGrArGrGrCrAdAdT” has a normalised inhibition (eCFP-eYFP dual reporter) of 34.1%. In the case of “sense rCrGrGrGrGrCrUrGrArGrArArArGrUrUrCrGrUdTdT / antisense rArCrGrArArCrUrUrUrCrUrCrArGrCrCrCrCrGdGdG”, the normalised inhibition (eCFP-eYFP dual reporter) is reported as 95.2%. With “sense rUrCrCrCrUrGrCrUrUrCrUrGrArGrArCrUrUrCdTdT / antisense rGrArArGrUrCrUrCrArGrArArGrCrArGrGrGrAdAdG” the normalised inhibition (eCFP-eYFP dual reporter) was 67.9%. “sense rCrCrCrGrGrGrGrCrUrGrArGrArArArGrUrUrCdTdT / antisense rGrArArCrUrUrUrCrUrCrArGrCrCrCrCrGrGrGdAdT” showed a normalised inhibition (eCFP-eYFP dual reporter) of 85.4%. For “sense rCrUrUrArGrUrCrCrCrCrUrCrUrUrUrCrUrGrGdTdT / antisense rCrCrArGrArArArGrArGrGrGrGrArCrUrArArGdGdG”, the normalised inhibition (eCFP-eYFP dual reporter) was 87.5%. Substance “sense rCrCrArCrArUrGrGrUrGrUrGrGrArArUrCrUrGdTdT / antisense rCrArGrArUrUrCrCrArCrArCrCrArUrGrUrGrGdCdA” has a normalised inhibition (eCFP-eYFP dual reporter) of 40.2%. “sense rGrArGrGrArCrUrCrCrUrUrCrCrUrUrCrUrCrUdTdT / antisense rArGrArGrArArGrGrArArGrGrArGrUrCrCrUrCdTdG” showed a normalised inhibition (eCFP-eYFP dual reporter) of 81.2%. In the case of “sense rUrGrUrGrUrGrCrUrUrCrCrUrCrUrCrCrCrArUdTdT / antisense rArUrGrGrGrArGrArGrGrArArGrCrArCrArCrAdGdT”, the normalised inhibition (eCFP-eYFP dual reporter) is reported as 104%. In the case of “sense rUrUrGrCrUrCrUrCrUrGrGrArGrUrCrUrCrCrCdTdT / antisense rGrGrGrArGrArCrUrCrCrArGrArGrArGrCrArAdGdA”, the normalised inhibition (eCFP-eYFP dual reporter) is reported as 58.4%. In the case of “sense rGrGrCrUrCrUrGrUrCrUrCrUrCrUrGrCrCrArCdTdT / antisense rGrUrGrGrCrArGrArGrArGrArCrArGrArGrCrCdAdC”, the normalised inhibition (eCFP-eYFP dual reporter) is reported as 45.8%. “sense rGrArGrArGrArGrCrArArCrArGrGrGrUrArUrGdTdT / antisense rCrArUrArCrCrCrUrGrUrUrGrCrUrCrUrCrUrCdCdC” showed a normalised inhibition (eCFP-eYFP dual reporter) of 85.5%. “sense rCrUrUrGrArGrGrGrArGrArGrUrUrGrUrArCrCdTdT / antisense rGrGrUrArCrArArCrUrCrUrCrCrCrUrCrArArGdCdC” showed a normalised inhibition (eCFP-eYFP dual reporter) of 63.4%. With “sense rUrGrArGrArCrUrUrCrCrArUrCrUrCrUrArGrCdTdT / antisense rGrCrUrArGrArGrArUrGrGrArArGrUrCrUrCrAdGdA” the normalised inhibition (eCFP-eYFP dual reporter) was 32.9%. For “sense rArGrArArGrArArArCrUrUrGrCrUrCrCrArGrAdTdT / antisense rUrCrUrGrGrArGrCrArArGrUrUrUrCrUrUrCrUdCdA”, the normalised inhibition (eCFP-eYFP dual reporter) was 90%. Substance “sense rUrGrArArGrCrUrGrGrUrCrUrGrUrGrGrCrArGdTdT / antisense rCrUrGrCrCrArCrArGrArCrCrArGrCrUrUrCrAdGdA” has a normalised inhibition (eCFP-eYFP dual reporter) of 44.4%. Substance “sense rArCrCrCrUrUrUrArCrArGrArArCrArCrCrCrAdTdT / antisense rUrGrGrGrUrGrUrUrCrUrGrUrArArArGrGrGrUdGdG” has a normalised inhibition (eCFP-eYFP dual reporter) of 86.5%. Work on “sense rGrArUrUrUrArGrGrCrUrUrGrArGrGrGrArGrAdTdT / antisense rUrCrUrCrCrCrUrCrArArGrCrCrUrArArArUrCdCdA” yielded a normalised inhibition (eCFP-eYFP dual reporter) of 90.8%. Substance “sense rGrUrCrCrCrUrGrArGrGrArGrCrCrCrUrUrArGdTdT / antisense rCrUrArArGrGrGrCrUrCrCrUrCrArGrGrGrArCdGdG” has a normalised inhibition (eCFP-eYFP dual reporter) of 85.8%. Substance “sense rUrArGrGrCrUrUrGrArGrGrGrArGrArGrUrUrGdTdT / antisense rCrArArCrUrCrUrCrCrCrUrCrArArGrCrCrUrAdAdA” has a normalised inhibition (eCFP-eYFP dual reporter) of 76.7%. With “sense rCrArGrGrGrGrCrArGrCrGrGrGrArGrArGrArGdTdT / antisense rCrUrCrUrCrUrCrCrCrGrCrUrGrCrCrCrCrUrGdAdA” the normalised inhibition (eCFP-eYFP dual reporter) was 66.2%. With “sense rUrGrUrUrCrCrUrUrGrUrGrGrArCrUrCrUrGrAdTdT / antisense rUrCrArGrArGrUrCrCrArCrArArGrGrArArCrAdTdC” the normalised inhibition (eCFP-eYFP dual reporter) was 94.3%. “sense rGrGrUrGrGrCrUrCrUrGrUrCrUrCrUrCrUrGrCdTdT / antisense rGrCrArGrArGrArGrArCrArGrArGrCrCrArCrCdGdG” showed a normalised inhibition (eCFP-eYFP dual reporter) of 71.5%. Substance “sense rGrGrCrArGrGrArGrArUrArGrCrCrCrArGrGrGdTdT / antisense rCrCrCrUrGrGrGrCrUrArUrCrUrCrCrUrGrCrCdAdC” has a normalised inhibition (eCFP-eYFP dual reporter) of 67.7%. “sense rGrCrCrUrUrCrArUrCrCrArCrCrUrUrCrCrCrUdTdT / antisense rArGrGrGrArArGrGrUrGrGrArUrGrArArGrGrCdAdG” gave a normalised inhibition (eCFP-eYFP dual reporter) of 85.7%. With “sense rCrArCrCrArGrArGrCrCrUrGrCrCrCrCrArCrCdTdT / antisense rGrGrUrGrGrGrGrCrArGrGrCrUrCrUrGrGrUrGdTdG” the normalised inhibition (eCFP-eYFP dual reporter) was 90.4%. With “sense rArArGrArArArCrUrUrGrCrUrCrCrArGrArUrUdTdT / antisense rArArUrCrUrGrGrArGrCrArArGrUrUrUrCrUrUdCdT” the normalised inhibition (eCFP-eYFP dual reporter) was 79%. “sense rArGrArCrUrArCrArGrUrUrUrCrUrUrUrCrCrCdTdT / antisense rGrGrGrArArArGrArArArCrUrGrUrArGrUrCrUdGdC” showed a normalised inhibition (eCFP-eYFP dual reporter) of 55.6%. In the case of “sense rGrArUrUrCrCrArCrCrArGrUrUrUrArGrArArGdTdT / antisense rCrUrUrCrUrArArArCrUrGrGrUrGrGrArArUrCdTdG”, the normalised inhibition (eCFP-eYFP dual reporter) is reported as 84%. With “sense rUrGrGrArUrUrUrArGrGrCrUrUrGrArGrGrGrAdTdT / antisense rUrCrCrCrUrCrArArGrCrCrUrArArArUrCrCrAdGdA” the normalised inhibition (eCFP-eYFP dual reporter) was 81.4%. With “sense rGrGrCrArGrArCrUrArCrArGrUrUrUrCrUrUrUdTdT / antisense rArArArGrArArArCrUrGrUrArGrUrCrUrGrCrCdAdG” the normalised inhibition (eCFP-eYFP dual reporter) was 86%. Work on “sense rCrCrArGrGrGrGrArCrArGrGrCrArGrCrArGrGdTdT / antisense rCrCrUrGrCrUrGrCrCrUrGrUrCrCrCrCrUrGrGdGdC” yielded a normalised inhibition (eCFP-eYFP dual reporter) of 45.6%. In the case of “sense rUrCrCrCrCrUrGrCrCrUrGrUrCrArGrGrGrGrUdTdT / antisense rArCrCrCrCrUrGrArCrArGrGrCrArGrGrGrGrAdAdA”, the normalised inhibition (eCFP-eYFP dual reporter) is reported as 42.2%. Substance “sense rGrUrCrGrUrUrCrGrUrGrGrUrCrGrUrUrUrCrAdTdT / antisense rUrGrArArArCrGrArCrCrArCrGrArArCrGrArCdCdA” has a normalised inhibition (eCFP-eYFP dual reporter) of 39.3%. Work on “sense rUrUrUrArGrGrGrUrGrCrCrCrArCrUrUrArGrGdTdT / antisense rCrCrUrArArGrUrGrGrGrCrArCrCrCrUrArArAdAdG” yielded a normalised inhibition (eCFP-eYFP dual reporter) of 48.8%. Work on “sense rGrGrCrArGrCrGrGrGrArGrArGrArGrCrArArCdTdT / antisense rGrUrUrGrCrUrCrUrCrUrCrCrCrGrCrUrGrCrCdCdC” yielded a normalised inhibition (eCFP-eYFP dual reporter) of 61.9%. Substance “sense rArGrArArCrArCrCrCrArGrGrArArUrUrCrUrUdTdT / antisense rArArGrArArUrUrCrCrUrGrGrGrUrGrUrUrCrUdGdT” has a normalised inhibition (eCFP-eYFP dual reporter) of 84.5%. “sense rUrUrGrCrCrUrCrCrCrUrUrGrArGrGrCrGrUrCdTdT / antisense rGrArCrGrCrCrUrCrArArGrGrGrArGrGrCrArAdTdC” showed a normalised inhibition (eCFP-eYFP dual reporter) of 37.3%. With “sense rArArUrCrUrGrGrCrArGrArCrUrArCrArGrUrUdTdT / antisense rArArCrUrGrUrArGrUrCrUrGrCrCrArGrArUrUdCdC” the normalised inhibition (eCFP-eYFP dual reporter) was 81.7%.
